Measurements reported in ChEMBL document CHEMBL1667779, “Structure-based parallel medicinal chemistry approach to improve metabolic stability of benzopyran COX-2 inhibitors” (Bioorg Med Chem Lett, 2011).

How the values were obtained:
[1] = organism: Homo sapiens; assay: Selectivity ratio of IC50 for human COX1 to IC50 for human COX2
[2] = molecular target: Prostaglandin G/H synthase 1 (Homo sapiens, UniProt P23219)
[3] = Metabolic stability of the compound in rat liver microsomes assessed as compound remaining at 2 mM after 30 mins by LC/MS analysis; assay type: ADME, Microsome; conditions: read-out: Stability
[4] = Metabolic stability of the compound in human liver microsomes assessed as compound remaining at 2 mM after 30 mins by LC/MS analysis; assay type: ADME, Microsome; conditions: read-out: Stability
[5] = molecular target: T1, Prostaglandin G/H synthase 2 (Homo sapiens, UniProt P35354)
T1 sequence (P35354 whole entry): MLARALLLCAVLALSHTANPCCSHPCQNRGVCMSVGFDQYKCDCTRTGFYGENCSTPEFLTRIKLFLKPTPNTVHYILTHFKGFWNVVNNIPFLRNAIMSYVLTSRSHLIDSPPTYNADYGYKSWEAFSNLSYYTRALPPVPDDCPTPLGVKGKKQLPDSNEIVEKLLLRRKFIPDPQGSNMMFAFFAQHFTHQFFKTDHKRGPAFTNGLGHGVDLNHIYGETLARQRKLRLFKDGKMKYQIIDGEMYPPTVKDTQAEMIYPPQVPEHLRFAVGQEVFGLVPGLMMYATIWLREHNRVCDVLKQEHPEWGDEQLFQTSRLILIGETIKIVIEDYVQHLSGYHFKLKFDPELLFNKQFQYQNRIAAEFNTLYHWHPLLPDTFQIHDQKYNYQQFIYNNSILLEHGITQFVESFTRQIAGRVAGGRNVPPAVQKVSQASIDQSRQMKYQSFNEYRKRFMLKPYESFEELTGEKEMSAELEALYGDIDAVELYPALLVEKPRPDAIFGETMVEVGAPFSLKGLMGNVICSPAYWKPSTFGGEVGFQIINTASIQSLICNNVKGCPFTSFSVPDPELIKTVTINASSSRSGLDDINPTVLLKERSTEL

[6] = Solubility of the compound; assay type: physicochemical; conditions: read-out: Stability
[7] = Half life in human; assay type: ADME, organism-based; conditions: in vivo

Chain of Prostaglandin G/H synthase 1 (P23219 whole entry): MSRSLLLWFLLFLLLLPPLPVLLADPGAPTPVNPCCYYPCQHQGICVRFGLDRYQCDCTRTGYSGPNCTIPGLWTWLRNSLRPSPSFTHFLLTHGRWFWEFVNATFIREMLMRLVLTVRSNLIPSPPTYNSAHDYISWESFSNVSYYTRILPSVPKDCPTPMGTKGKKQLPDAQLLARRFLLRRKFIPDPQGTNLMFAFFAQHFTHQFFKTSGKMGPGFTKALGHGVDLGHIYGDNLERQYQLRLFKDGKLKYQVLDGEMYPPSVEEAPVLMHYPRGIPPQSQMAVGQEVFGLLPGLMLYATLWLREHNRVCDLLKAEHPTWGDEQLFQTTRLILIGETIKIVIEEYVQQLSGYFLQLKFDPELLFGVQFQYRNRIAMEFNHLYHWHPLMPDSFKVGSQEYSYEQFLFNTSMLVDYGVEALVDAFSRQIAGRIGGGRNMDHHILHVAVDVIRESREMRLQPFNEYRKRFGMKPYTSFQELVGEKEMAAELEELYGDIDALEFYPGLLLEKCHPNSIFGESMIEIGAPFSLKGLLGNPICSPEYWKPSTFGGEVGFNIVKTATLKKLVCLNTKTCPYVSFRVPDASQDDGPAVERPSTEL

O=C(O)C1=Cc2cc(Cl)cc(-c3ccc(CO)cc3)c2OC1C(F)(F)F (stereo not drawn)
Selectivity ratio [1]: 0.38
IC50 [2]: 2.44 µM
remaining at 0.5 h [3]: 75%
remaining at 0.5 h [4]: 93%
IC50 [5]: 6.38 µM

CCSc1ccc(-c2cc(Cl)cc3c2OC(C(F)(F)F)C(C(=O)O)=C3)cc1 (stereo not drawn)
remaining at 0.5 h [3]: 47%
remaining at 0.5 h [4]: 75%
IC50 [5]: 0.242 µM

CC(C)Cc1ccc(-c2cc(Cl)cc3c2OC(C(F)(F)F)C(C(=O)O)=C3)cc1 (stereo not drawn)
Selectivity ratio [1]: 2
IC50 [2]: 26.5 µM
remaining at 0.5 h [3]: 96%
remaining at 0.5 h [4]: 88%
IC50 [5]: 13.4 µM

O=C(O)C1=Cc2cc(Cl)cc(Cl)c2OC1C(F)(F)F (stereo not drawn)
solubility [6]: > 30 µM
remaining at 0.5 h [3]: 100%
half-life [7]: 15 days
remaining at 0.5 h [4]: 100%

Nc1ccc(-c2cc(Cl)cc3c2OC(C(F)(F)F)C(C(=O)O)=C3)cc1 (stereo not drawn)
Selectivity ratio [1]: 0.764
IC50 [2]: 1.39 µM
remaining at 0.5 h [3]: 53%
remaining at 0.5 h [4]: 93%
IC50 [5]: 1.82 µM

O=C(O)C1=Cc2cc(Cl)cc(-c3ccc(C(=O)O)cc3)c2OC1C(F)(F)F (stereo not drawn)
IC50 [2]: > 100 µM
remaining at 0.5 h [3]: 91%
remaining at 0.5 h [4]: 90%
IC50 [5]: > 100 µM

CS(=O)(=O)Nc1ccc(-c2cc(Cl)cc3c2OC(C(F)(F)F)C(C(=O)O)=C3)cc1 (stereo not drawn)
Selectivity ratio [1]: > 2.5
IC50 [2]: > 100 µM
remaining at 0.5 h [3]: 53%
remaining at 0.5 h [4]: 100%
IC50 [5]: 40.1 µM

CCc1ccc(-c2cc(Cl)cc3c2OC(C(F)(F)F)C(C(=O)O)=C3)cc1 (stereo not drawn)
Selectivity ratio [1]: 226
IC50 [2]: 17.7 µM
remaining at 0.5 h [3]: 60%
remaining at 0.5 h [4]: 18%

COc1ccc(-c2cc(Cl)cc3c2OC(C(F)(F)F)C(C(=O)O)=C3)cc1C (stereo not drawn)
Selectivity ratio [1]: > 295
IC50 [2]: > 100 µM
remaining at 0.5 h [3]: 61%
remaining at 0.5 h [4]: 84%
IC50 [5]: 0.339 µM

O=C(O)C1=Cc2cc(Cl)cc(-c3ccc(Cl)cc3)c2OC1C(F)(F)F (stereo not drawn)
Selectivity ratio [1]: 11.4
IC50 [2]: 0.242 µM
remaining at 0.5 h [3]: 57%
remaining at 0.5 h [4]: 53%
IC50 [5]: 0.0211 µM

O=C(O)C1=Cc2cc(Cl)cc(-c3ccc(O)cc3)c2OC1C(F)(F)F (stereo not drawn)
Selectivity ratio [1]: 0.84
IC50 [2]: 2.91 µM
remaining at 0.5 h [3]: 94%
remaining at 0.5 h [4]: 91%
IC50 [5]: 3.48 µM

CS(=O)(=O)c1ccc(-c2cc(Cl)cc3c2OC(C(F)(F)F)C(C(=O)O)=C3)cc1 (stereo not drawn)
Selectivity ratio [1]: 0.182
IC50 [2]: 3.87 µM
IC50 [5]: 21.3 µM

Cc1ccc(-c2cc(Cl)cc3c2OC(C(F)(F)F)C(C(=O)O)=C3)cc1F (stereo not drawn)
Selectivity ratio [1]: 375
remaining at 0.5 h [3]: 55%
remaining at 0.5 h [4]: 31%

NS(=O)(=O)c1ccc(-c2cc(Cl)cc3c2OC(C(F)(F)F)C(C(=O)O)=C3)cc1 (stereo not drawn)
Selectivity ratio [1]: 120
IC50 [2]: 91.4 µM

CCOc1ccc(-c2cc(Cl)cc3c2OC(C(F)(F)F)C(C(=O)O)=C3)cc1 (stereo not drawn)
Selectivity ratio [1]: 90.1
IC50 [2]: 32 µM
remaining at 0.5 h [3]: 82%
remaining at 0.5 h [4]: 91%
IC50 [5]: 0.355 µM

Cc1ccc(-c2cc(Cl)cc3c2OC(C(F)(F)F)C(C(=O)O)=C3)cc1 (stereo not drawn)
Selectivity ratio [1]: 42.1
IC50 [2]: 4.34 µM
remaining at 0.5 h [3]: 60%
remaining at 0.5 h [4]: 18%
IC50 [5]: 0.103 µM

O=C(O)C1=Cc2cc(Cl)cc(-c3ccc(F)cc3)c2OC1C(F)(F)F (stereo not drawn)
Selectivity ratio [1]: < 0.007
IC50 [5]: > 100 µM

O=C(O)C1=Cc2cc(Cl)cc(-c3ccccc3)c2OC1C(F)(F)F (stereo not drawn)
Selectivity ratio [1]: 8.2
IC50 [2]: 1.54 µM
IC50 [5]: 0.188 µM
